In patent publication US4537879A, “A47934 Antibiotic and process for production thereof” (Eli Lilly and Company, priority 1984, dated 1985):
In brackets after ≈: the same amount, converted by molar mass. Where two headings read alike, the source gives them in different places.

Assays:
[1] = test system: Eubacterium aerofaciens 1235; assay: MIC against anaerobic bacteria, agar dilution; format: cell-based; conditions: strain 1235
[2] = test system: volatile fatty acids produced in the rumen; assay: Test 1: in vitro modification of the ratio of volatile fatty acids produced in the rumen
Text: The effectiveness of antibiotic A47934 in modifying the ratio of volatile fatty acids produced in the rumen has been determined using the in vitro test described in Raun, U.S. Pat. No. 3,928,571 (Dec. 23, 1975), see the EXAMPLE therein. The data in Table 9, which follows, are reported as the ratio of VFA's produced in treated flasks to VFA's produced in untreated control flasks.

[3] = Acute toxicity, intraperitoneal; format: in vivo; conditions: mice, intraperitoneally
Experimental: Antibiotic A47934, when given intraperitoneally to mice, has an acute toxicity greater than 300 mg./kg.

[4] = Test 3: growth promotion in weanling pigs; format: in vivo; conditions: 28 days
Experimental: Antibiotic A47934 was tested at levels of 10 and 50 ppm. in the diet of pigs initially weighing an average of about 23 pounds, compared with […]) administered in the diet at 110 ppm. The experiment was conducted in an environmentally controlled nursery facility with wire mesh floors in the pens. There were four replicates per treatment and four pigs per replicate for the 28-day experiment. There were six replicates of four pigs per replicate in the control group, which group received the unmedicated diet. The pigs were fed ad libitum on an 18 percent protein corn-soy ration having the following composition: At the end of the trial, the average weight of the individual pig had increased to 53 pounds.

[5] = test system: Clostridium septicum 1128; assay: MIC against anaerobic bacteria, agar dilution; format: cell-based; conditions: strain 1128
[6] = test system: Bacteroides thetaiotaomicron 1438; assay: MIC against anaerobic bacteria, agar dilution; format: cell-based; conditions: strain 1438
[7] = test system: Peptostreptococcus anaerobius 1428; assay: MIC against anaerobic bacteria, agar dilution; format: cell-based; conditions: strain 1428
[8] = test system: Peptococcus asaccharolyticus 1302; assay: MIC against anaerobic bacteria, agar dilution; format: cell-based; conditions: strain 1302
[9] = Test 2: growth promotion in chickens; format: in vivo, 8-day old Penobscot broilers; conditions: chicks, 20 g./T. of feed, 21 days
Text: Chicks, 8-day old Penobscot broilers, were used in this test. A total of 560 chicks were used divided into groups of 7 birds each. […] The broiler starter ration has the following composition: Feed and water were available to all groups ad libitum for 21 days. Two time replicates were run.

Haemophilus influenza = assay: MIC against a variety of bacteria, standard agar-dilution; format: cell-based
Streptococcus Group D = assay: as above; format: cell-based
S. aureus (3055) = assay: In vivo activity against experimental bacterial infection; conditions: mice, two doses subcutaneously; S. aureus (3055) infection
S. pyogenes C203 = assay: In vivo activity against experimental bacterial infection; conditions: mice, two doses subcutaneously
[10] = test system: Clostridium perfringens 81; format: cell-based; conditions: strain 81; agar dilution
[11] = test system: Fusobacterium necrophorum 6054A; assay: MIC against anaerobic bacteria, agar dilution; format: cell-based; conditions: strain 6054A
[12] = Precipitation from broth filtrate on acidification; format: physicochemical; conditions: broth filtrate acidified
Text: Antibiotic A47934 can also be removed from the broth filtrate by adjusting such filtrate to about pH 3 with acid, for complete precipitation, followed by filtration. A47934 starts to precipitate at about pH 6.5 and is complete at about pH 3. Inorganic acids such as hydrochloric, sulfuric, and phosphoric, and organic acids such as acetic acid and formic acid are suitable for acidification. The crude A47934 thus obtained can be further purified by chromatographic procedures.

Staphylococcus aureus = assay: MIC against a variety of bacteria, standard agar-dilution; format: cell-based
[13] = test system: Streptococcus pyogenes C203; assay: as above; format: cell-based; conditions: strain C203
[14] = test system: Clostridium difficile strains; assay: MIC against Clostridium difficile strains, agar-dilution; format: cell-based
Text: Antibiotic A47934 is also active against a number of strains of Clostridium difficile, as determined by the agar-dilution method.

Bacteroides fragilis = assay: MIC against anaerobic bacteria, agar dilution; format: cell-based
[15] = test system: Fusobacterium symbiosum 1470; assay: MIC against anaerobic bacteria, agar dilution; format: cell-based; conditions: strain 1470
[16] = test system: Staphylococcus epidermidis; assay: MIC against a variety of bacteria, standard agar-dilution; format: cell-based
[17] = test system: Propionibacterium acnes 79; assay: MIC against anaerobic bacteria, agar dilution; format: cell-based; conditions: strain 79
[18] = test system: Streptococcus pneumoniae Park 1; assay: MIC against a variety of bacteria, standard agar-dilution; format: cell-based; conditions: strain Park 1
[19] = test system: Peptostreptococcus intermedius 1264; assay: MIC against anaerobic bacteria, agar dilution; format: cell-based; conditions: strain 1264
S. pneumoniae (Park I) = assay: In vivo activity against experimental bacterial infection; conditions: mice, two doses subcutaneously
Salmonella typhi = assay: MIC against a variety of bacteria, standard agar-dilution; format: cell-based
[20] = test system: Bacteroides vulgatis 1211; assay: MIC against anaerobic bacteria, agar dilution; format: cell-based; conditions: strain 1211
[21] = test system: Bacteroides melaninogenicus; assay: MIC against anaerobic bacteria, agar dilution; format: cell-based
[22] = test system: Bacteroides corrodens 1874; assay: MIC against anaerobic bacteria, agar dilution; format: cell-based; conditions: strain 1874
Peptococcus prevoti 1281 = conditions: strain 1281; agar dilution
[23] = test system: Clostridium difficile 2994; assay: MIC against anaerobic bacteria, agar dilution; format: cell-based; conditions: strain 2994

N[C@H]1C(=O)N[C@@H]2Cc3ccc(c(Cl)c3)Oc3cc4cc(c3O)Oc3ccc(cc3Cl)[C@@H](O)[C@@H]3NC(=O)[C@H](NC(=O)[C@@H]4NC(=O)[C@@H](NC2=O)c2cc(O)cc(c2)Oc2cc1ccc2OS(=O)(=O)O)c1cc(Cl)c(O)c(c1)-c1c(O)cc(O)cc1[C@@H](C(=O)O)NC3=O [Antibiotic A47934]
MIC [1]: 1.0 µg/mL (≈ 0.761 µM) | Acetate, ratio of VFA produced in treated flasks to untreated control flasks ([2]; 1 mcg./ml.): 0.99 | Butyrate, ratio of VFA produced in treated flasks to untreated control flasks ([2]; 1 mcg./ml.): 1.01 | Propionate, ratio of VFA produced in treated flasks to untreated control flasks ([2]; 1 mcg./ml.): 1.11 | Acetate, ratio of VFA produced in treated flasks to untreated control flasks ([2]; 2 mcg./ml.): 1.09 | Butyrate, ratio of VFA produced in treated flasks to untreated control flasks ([2]; 2 mcg./ml.): 1.03 | Propionate, ratio of VFA produced in treated flasks to untreated control flasks ([2]; 2 mcg./ml.): 1.10 | Acetate, ratio of VFA produced in treated flasks to untreated control flasks ([2]; 4 mcg./ml.): 0.81 | Butyrate, ratio of VFA produced in treated flasks to untreated control flasks ([2]; 4 mcg./ml.): 1.03 | Propionate, ratio of VFA produced in treated flasks to untreated control flasks ([2]; 4 mcg./ml.): 1.32 | Acetate, ratio of VFA produced in treated flasks to untreated control flasks ([2]; 10 mcg./ml.): 0.95 | Butyrate, ratio of VFA produced in treated flasks to untreated control flasks ([2]; 10 mcg./ml.): 1.00 | Propionate, ratio of VFA produced in treated flasks to untreated control flasks ([2]; 10 mcg./ml.): 1.12 | acute toxicity [3]: greater than 300 mg./kg. | ADF % Im-crease ([4]; 10 ppm in diet): -3.2% | ADF (average daily feed consumption) ([4]; 10 ppm in diet): 1.83 lbs. | ADG % Im-crease ([4]; 10 ppm in diet): 3.1% | ADG (average daily gain) ([4]; 10 ppm in diet): 1.00 lbs. | F/G % Improvement ([4]; 10 ppm in diet): 7.6% | F/G (ratio of feed consumption to gain) ([4]; 10 ppm in diet): 1.82 | ADF % Im-crease ([4]; 50 ppm in diet): 4.7% | ADF (average daily feed consumption) ([4]; 50 ppm in diet): 1.98 lbs. | ADG % Im-crease ([4]; 50 ppm in diet): 10.3% | ADG (average daily gain) ([4]; 50 ppm in diet): 1.07 lbs. | F/G % Improvement ([4]; 50 ppm in diet): 6.1% | F/G (ratio of feed consumption to gain) ([4]; 50 ppm in diet): 1.85 | MIC [5]: 0.5 µg/mL (≈ 0.381 µM) | MIC [6]: 32.0 µg/mL (≈ 24.4 µM) | MIC [7]: 0.25 µg/mL (≈ 0.19 µM) | MIC [8]: 0.5 µg/mL (≈ 0.381 µM) | Feed Efficiency % Impr. ([9]; first time replicate): 4.69% | Feed Efficiency F/G ([9]; first time replicate): 1.707 | Weight Gain ([9]; first time replicate): 519 gm. | Weight Gain % Impr. ([9]; first time replicate): 7.23% | Feed Efficiency F/G ([9]; second time replicate): 1.746 | Weight Gain ([9]; second time replicate): 464 gm. | Weight Gain % Impr. ([9]; second time replicate): 0% | MIC (Haemophilus influenza; strain 76): 4.0 µg/mL (≈ 3.05 µM) | MIC (Haemophilus influenza; strain C.L.): 2.0 µg/mL (≈ 1.52 µM) | MIC (Streptococcus Group D; strain 9960): 0.5 µg/mL (≈ 0.381 µM) | MIC (Streptococcus Group D; strain X66): 0.5 µg/mL (≈ 0.381 µM) | ED50 (S. aureus (3055)): < 0.3 mg./kg. × 2 | MIC (Klebsiella pneumoniae; strain KAE): > 128.0 µg/mL | MIC (Klebsiella pneumoniae; strain X26): > 128.0 µg/mL | ED50 (S. pyogenes C203): 3.38 mg./kg. × 2 | MIC [10]: 0.5 µg/mL (≈ 0.381 µM) | MIC [11]: 0.25 µg/mL (≈ 0.19 µM) | pH at which A47934 starts to precipitate [12]: ~6.5 pH | pH at which precipitation is complete [12]: ~3 pH | MIC (Staphylococcus aureus): 0.125 µg/mL (≈ 0.0952 µM) | MIC (Staphylococcus aureus; strain S13E): 0.125 µg/mL (≈ 0.0952 µM) | MIC (Staphylococcus aureus; strain X1.1): 0.06 µg/mL (≈ 0.0457 µM) | MIC (Staphylococcus aureus; strain X400): 0.25 µg/mL (≈ 0.19 µM) | MIC [13]: 0.25 µg/mL (≈ 0.19 µM) | MIC ([14]; strain 78): ≤ 0.5 µg/mL | MIC ([14]; strain 107B): ≤ 0.5 µg/mL | MIC ([14]; strain 111F): ≤ 0.5 µg/mL | MIC ([14]; strain 1153): ≤ 0.5 µg/mL | MIC ([14]; strain 2634): ≤ 1.0 µg/mL | MIC ([14]; strain 3424-5B): ≤ 0.5 µg/mL | MIC ([14]; strain 3816): ≤ 0.5 µg/mL | MIC ([14]; strain 3950D): ≤ 0.5 µg/mL | MIC ([14]; strain 6890): ≤ 0.5 µg/mL | MIC ([14]; strain 8484): ≤ 0.5 µg/mL | MIC ([14]; strain A-194): ≤ 0.5 µg/mL | MIC ([14]; strain A-195): ≤ 0.5 µg/mL | MIC ([14]; strain A-196): ≤ 0.5 µg/mL | MIC ([14]; strain A-279): ≤ 1.0 µg/mL | MIC ([14]; strain A-280): ≤ 0.5 µg/mL | MIC ([14]; strain A-281): ≤ 0.5 µg/mL | MIC ([14]; strain WAL-2112): ≤ 0.5 µg/mL | MIC ([14]; strain WAL-3657): ≤ 0.5 µg/mL | MIC ([14]; strain WAL-4268): ≤ 0.5 µg/mL | MIC (Bacteroides fragilis; strain 111): 32.0 µg/mL (≈ 24.4 µM) | MIC (Bacteroides fragilis; strain 1877): 32.0 µg/mL (≈ 24.4 µM) | MIC (Bacteroides fragilis; strain 1936B): 32.0 µg/mL (≈ 24.4 µM) | MIC [15]: 2.0 µg/mL (≈ 1.52 µM) | MIC ([16]; strain EPI1): 0.25 µg/mL (≈ 0.19 µM) | MIC ([16]; strain EPI2): 2.0 µg/mL (≈ 1.52 µM) | MIC [17]: 1.0 µg/mL (≈ 0.761 µM) | MIC [18]: 0.06 µg/mL (≈ 0.0457 µM) | MIC [19]: 1.0 µg/mL (≈ 0.761 µM) | ED50 (S. pneumoniae (Park I)): 1.77 mg./kg. × 2 | MIC (Salmonella typhi; strain 1335): > 128 µg/mL | MIC (Salmonella typhi; strain X514): > 128 µg/mL | MIC [20]: 32.0 µg/mL (≈ 24.4 µM) | MIC ([21]; strain 1856/28): > 128.0 µg/mL | MIC ([21]; strain 2736): 16.0 µg/mL (≈ 12.2 µM) | MIC [22]: 32.0 µg/mL (≈ 24.4 µM) | MIC (Peptococcus prevoti 1281): 1.0 µg/mL (≈ 0.761 µM) | MIC (Escherichia coli; strain EC14): > 128.0 µg/mL | MIC (Escherichia coli; strain N10): > 128.0 µg/mL | MIC (Escherichia coli; strain TEM): > 128.0 µg/mL | MIC [23]: 0.5 µg/mL (≈ 0.381 µM)

CC[C@H]1OC(=O)C[C@@H](O)[C@H](C)[C@@H](O[C@@H]2O[C@H](C)[C@@H](O[C@H]3C[C@@](C)(O)[C@@H](O)[C@H](C)O3)[C@H](N(C)C)[C@H]2O)[C@@H](CC=O)C[C@@H](C)C(=O)/C=C/C(C)=C/[C@@H]1CO[C@@H]1O[C@H](C)[C@@H](O)[C@@H](OC)[C@H]1OC [Tylan, tylosin, reference compound]
ADF % Im-crease ([4]; 110 ppm in diet): 2.6% | ADF (average daily feed consumption) ([4]; 110 ppm in diet): 1.94 lbs. | ADG % Im-crease ([4]; 110 ppm in diet): 4.1% | ADG (average daily gain) ([4]; 110 ppm in diet): 1.01 lbs. | F/G % Improvement ([4]; 110 ppm in diet): 2.5% | F/G (ratio of feed consumption to gain) ([4]; 110 ppm in diet): 1.92
